In patent US8350048B2, “Amide compounds as boosters of antivirals” (Janssen R&D Ireland, priority 2007, dated 2013):
Read-outs that look alike come from different tables or passages of the source.

Tests used:
[1] = tested on: wild-type HIV-1IIIB strain; test: Antiviral activity, MT4 LTR-EGFP cellular assay; assay type: cell-based; design: key to Antiviral activity IIIB (pEC50): pEC50 = -log10(EC50); settings: for EC50: read-out: Antiviral activity IIIB (pEC50) (converted)
Method: (§1) Assay 1 &2: Antiviral Activity/Toxicity
The compounds of the present invention were tested for antiviral activity in a cellular assay, which was performed according to the following procedure.
The human T-cell line MT4 is engineered with Green Fluorescent Protein (GFP) and an HIV-specific promoter, HIV-1 long terminal repeat (LTR). This cell line is designated MT4 LTR-EGFP, and can be used for the in vitro evaluation of anti-HIV activity of investigational compounds. In HIV-1 infected cells, the Tat protein is produced which upregulates the LTR promotor and finally leads to stimulation of the GFP reporter production, allowing measuring ongoing HIV-infection fluorometrically.
(§2) The ratio of CC50 to EC50 is defined as the selectivity index (SI) and is an indication of the selectivity of the anti-HIV activity of the inhibitor. The ultimate monitoring of HIV-1 infection and cytotoxicity is done using a scanning microscope. Image analysis allows very sensitive detection of viral infection. Measurements are done before cell necrosis, which usually takes place about five days after infection, in particular measurements are performed three days after infection.
(§3) A pEC50 value corresponds to −log10(EC50). A pCC50 value corresponds to −log10(CC50).

[2] = Toxicity, mock-infected MT4 CMV-EGFP cells; assay type: cell-based, human; settings: human
Excerpt: as §1
(§4) Analogously, MT4 cells are engineered with GFP and the constitutional cytomegalovirus (CMV) promotor. […] Cytotoxic investigational compounds reduce GFP levels of mock-infected MT4 CMV-EGFP cells.
as §2, §3

[3] = Metabolic stability of test compounds (HLM15'); assay type: in vitro ADME, human; settings: for recovery at 15 min, 5 μM: read-out: Metabolic stability (HLM, % recovery after 15')
Excerpt: Human liver tissue is rinsed in ice-cold 0.1 M Tris-HCl (pH 7.4) buffer to wash excess blood. Tissue is then blotted dry, weighed and chopped coarsely using surgical scissors. The tissue pieces are homogenized in 3 volumes of ice-cold 0.1 M phosphate buffer (pH 7.4) using either a Potter-S (Braun, Italy) equipped with a Teflon pestle or a Sorvall Omni-Mix homogenizer, for 7×10 sec. In both cases, the vessel is kept in/on ice during the homogenization process. Tissue homogenates are centrifuged at 9000×g for 20 min at 4° C. using a Sorvall centrifuge or Beckman Ultracentrifuge. The resulting supernatant can be stored at −80° C. and is designated ‘S9’. The S9 fraction is centrifuged at 100,000×g for 60 min at 4° C. using a Beckman ultracentrifuge. The resulting supernatant is carefully aspirated, aliquoted and designated ‘cytosol’. The pellet is re-suspended in 0.1 M phosphate buffer (pH 7.4) in a final volume of 1 ml per 0.5 g original tissue weight and designated ‘microsomes’. All sub-cellular fractions are aliquoted, immediately frozen in liquid nitrogen and stored at −80° C. until use.
Heat-inactivated (10 min at 95° C.) ‘S9’ or microsomes were used for blank experiments. […] The reaction was incubated for 0 or 15 min. Next, the reaction was stopped by addition of 2 volumes of DMSO (or acetonitrile). Samples were centrifuged (10 min, 900×g) and analyzed by LC-MS.

[4] = molecular target: CYP2D6 (Homo sapiens, UniProt P10635); test: in vitro; settings: pH 7.4
Method: (§5) Inhibition of the metabolism of test compounds by different CYP P450 isoenzymes was determined using E. coli expressed proteins (3A4, 2C9, 2D6, 1A2, and 2C19) that convert their specific substrates into a fluorescent molecule (Table 6). This fluorescent molecule was measured using a fluorescent plate reader (Victor2 (Wallac) or Fluoroskan (Labsystems)). […] CYP P450 enzymes were prepared in house or commercially bought and stored at −80° C.
(§6) The assay was performed in black 96 well Costar plates. Test compounds were added to a CYP P450 enzyme solution in the presence of an NADPH generating system. After 5 min of preincubation at 37° C., the freshly prepared, phosphate buffered (pH 7.4) substrate solution was added. Known CYP P450 inhibitors were used as positive controls, negative controls were run without CYP P450 enzyme. […] Reaction mixtures were incubated at 37° C. for 30 min (CYP3A4-BFC), 30 min (CYP3A4-BQ), 10 min (CYP3A4-DBF), 15 min (CYP1A2-CEC), 30 min (CYP2C9-MFC, CYP2C19-CEC), or 45 min (CYP2D6-AMMC), respectively. Then, the reaction was stopped by the addition of 200 μl acetonitrile, and the fluorescent signal was detected.
(§7) Calculation of CYP P450 isoenzyme inhibition (% inh.):
(§8) % activity=(100/(average positive control−average negative control))×(average sample−average negative control)

[5] = molecular target: CYP2C19 (Homo sapiens, UniProt P33261); test: in vitro; settings: E. coli expressed CYP2C19, pH 7.4, probe CEC 25 μM
Method: as §5, §6, §7, §8

[6] = tested on: MT4 CMV-EGFP cells; test: Toxicity, mock-infected MT4 CMV-EGFP cells; assay type: cell-based, human
Excerpt: as §1, §4, §2, §3

[7] = molecular target: CYP2C9 (Homo sapiens, UniProt P11712); test: in vitro
Excerpt: Assay 4: CYP450 Inhibition

[8] = Human immunodeficiency virus 1, 72 h, wild-type HIV-1 IIIB, MT4 LTR-EGFP cells, three days after infection
[9] = mock-infected MT4 CMV-EGFP cells, read-out: Toxicity MT4 (pCC50) (converted)
[10] = pH 7.4, human liver microsomes 1 mg/ml, 5 μM test compound, 15 min
[11] = wild-type HIV-1 IIIB, MT4 LTR-EGFP cells, three days after infection
[12] = human liver microsomes 1 mg/ml, 5 μM test compound, 15 min
[13] = Human immunodeficiency virus 1, IIIB, 72 h

CYP2C9, sequence (P11712 whole entry): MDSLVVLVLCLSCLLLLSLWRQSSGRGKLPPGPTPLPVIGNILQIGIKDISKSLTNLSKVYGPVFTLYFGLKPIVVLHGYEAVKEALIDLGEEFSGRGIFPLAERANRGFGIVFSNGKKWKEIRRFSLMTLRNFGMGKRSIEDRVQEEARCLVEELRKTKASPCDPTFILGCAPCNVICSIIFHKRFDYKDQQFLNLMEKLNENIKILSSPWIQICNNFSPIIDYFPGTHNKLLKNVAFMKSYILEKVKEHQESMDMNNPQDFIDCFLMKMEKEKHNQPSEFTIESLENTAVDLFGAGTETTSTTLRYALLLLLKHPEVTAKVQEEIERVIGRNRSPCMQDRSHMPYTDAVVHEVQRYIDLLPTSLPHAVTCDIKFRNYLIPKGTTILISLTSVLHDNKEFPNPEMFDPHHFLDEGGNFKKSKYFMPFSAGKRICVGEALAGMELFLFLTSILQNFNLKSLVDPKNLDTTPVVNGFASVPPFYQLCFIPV
CYP2C19, sequence (P33261 whole entry): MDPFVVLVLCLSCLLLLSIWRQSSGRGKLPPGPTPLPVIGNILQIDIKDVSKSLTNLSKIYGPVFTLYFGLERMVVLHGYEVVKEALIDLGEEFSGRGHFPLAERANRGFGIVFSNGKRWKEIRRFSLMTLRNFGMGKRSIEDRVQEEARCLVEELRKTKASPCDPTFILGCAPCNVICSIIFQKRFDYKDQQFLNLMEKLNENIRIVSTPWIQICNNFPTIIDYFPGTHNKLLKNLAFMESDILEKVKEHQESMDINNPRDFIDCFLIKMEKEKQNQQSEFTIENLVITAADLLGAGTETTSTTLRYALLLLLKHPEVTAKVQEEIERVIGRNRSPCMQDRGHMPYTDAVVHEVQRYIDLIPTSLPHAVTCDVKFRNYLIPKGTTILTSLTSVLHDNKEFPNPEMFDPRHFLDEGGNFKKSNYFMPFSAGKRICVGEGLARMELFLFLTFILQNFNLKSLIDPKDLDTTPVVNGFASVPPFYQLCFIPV
CYP2D6, sequence (P10635 whole entry): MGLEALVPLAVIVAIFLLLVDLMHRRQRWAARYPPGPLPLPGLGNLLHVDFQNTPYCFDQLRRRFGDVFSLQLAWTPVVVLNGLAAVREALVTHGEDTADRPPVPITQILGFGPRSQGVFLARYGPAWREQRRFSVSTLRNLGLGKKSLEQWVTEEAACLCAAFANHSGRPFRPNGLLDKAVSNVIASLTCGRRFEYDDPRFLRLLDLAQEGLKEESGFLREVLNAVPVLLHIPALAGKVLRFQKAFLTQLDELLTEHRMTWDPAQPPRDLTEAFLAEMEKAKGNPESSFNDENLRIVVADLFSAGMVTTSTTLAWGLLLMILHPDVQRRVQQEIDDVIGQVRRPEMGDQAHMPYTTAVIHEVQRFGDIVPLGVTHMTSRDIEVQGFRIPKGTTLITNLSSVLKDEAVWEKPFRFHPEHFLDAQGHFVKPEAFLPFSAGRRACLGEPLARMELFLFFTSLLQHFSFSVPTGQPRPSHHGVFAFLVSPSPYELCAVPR

| Structure (SMILES) | Toxicity MT4 (pCC50) [6] | Antiviral activity IIIB (pEC50) [1, 11] | Metabolic stability (HLM, % recovery after 15') [3, 12] [%] | Cyp450 inhibition: CDNA-CYP2C9-MFC (% inhibition) [7] [%] | also measured |
| --- | --- | --- | --- | --- | --- |
| CC(C)CN(C[C@H](O)[C@H](Cc1ccccc1)NC(=O)OCc1cncs1)C(=O)c1ccc2nc(N3CCCC3)oc2c1 [Compound C51, Thiazol-5-ylmethyl (2S,3S)-3-hydroxy-4-(N-isobutyl-2-(pyrrolidin-1-yl)-benzo[d]oxazole-6-carboxamido)-1-phenylbutan-2-ylcarbamate] |  |  |  |  | EC50 [1, 8]: 44.7 µM; CC50 at 3 days [2, 9]: 40.7 µM; recovery at 15 min, 5 μM [3, 10]: 66%; inhibition at 45 min, 10 μM [4]: 82%; inhibition at 30 min, 10 μM [5]: 94% |
| CC(C)CN(C[C@@H](O)[C@H](Cc1ccccc1)NC(=O)OCc1cncs1)C(=O)c1ccc2nc(N)oc2c1 [Compound C22] | <4.00 |  |  |  | Antiviral activity IIIB (pEC50) [1]: <4.00; Metabolic stability (HLM, % recovery after 15') [3]: 72% |
| C#CCN(C)c1nc2ccc(C(=O)N(CC(C)C)C[C@@H](O)[C@H](Cc3ccccc3)NC(=O)OCc3cncs3)cc2o1 [Compound C50] |  | =4.32 | 72 |  | Toxicity MT4 (pCC50) ([6]; mock-infected MT4 CMV-EGFP cells): =4.32 |
| CCN(C)c1nc2ccc(C(=O)N(CC(C)C)C[C@H](O)[C@H](Cc3ccccc3)NC(=O)OCc3cncs3)cc2o1 [Compound C52, Thiazol-5-ylmethyl (2S,3S)-4-(2-(ethyl(methyl)amino)-N-isobutylbenzo[d]-oxazole-6-carboxamido)-3-hydroxy-1-phenylbutan-2-ylcarbamate] |  |  |  |  | EC50 [1, 8]: 44.7 µM; CC50 [2]: 44.7 µM; recovery at 15 min, 5 μM [3, 10]: 63% |
| CCN(C)c1nc2ccc(C(=O)N(CCN3CCOCC3)C[C@@H](O)[C@H](Cc3ccccc3)NC(=O)OCc3cncs3)cc2o1 [Compound C18] | <4.00 | <4.00 | 64 | 53 |  |
| CCN(C[C@@H](O)[C@H](Cc1ccccc1)NC(=O)OCc1cncs1)C(=O)c1ccc2nc(N3CCCC3)oc2c1 [Compound C30, Thiazol-5-ylmethyl (2S,3R)-4-(N-ethyl-2-(pyrrolidin-1-yl)benzo[d]oxazole-6-carboxamido)-3-hydroxy-1-phenylbutan-2-ylcarbamate] |  |  |  |  | EC50 [1, 13]: 69.2 µM; CC50 [2]: 72.4 µM; recovery ([3]; human, pH 7.4): 80% |
| CC(C)CN(C[C@@H](O)[C@H](Cc1cccnc1)NC(=O)OCc1cncs1)C(=O)c1ccc2ncsc2c1 [Compound C55, Thiazol-5-ylmethyl (2S,3R)-3-hydroxy-4-(N-isobutylbenzo[d]thiazole-6-carboxamido)-1-(pyridin-3-yl)butan-2-ylcarbamate] |  |  |  |  | EC50 [1, 8]: > 100 µM; CC50 at 3 days [2, 9]: > 100 µM |
| CC(C)CN(C[C@@H](O)[C@H](Cc1ccccc1)NC(=O)OCc1cncs1)C(=O)c1ccc2nc(NCCCn3ccnc3)oc2c1 [Compound C46] | <4.00 | =4.06 | 92 | 90 |  |
| CC(C)CN(C[C@@H](O)[C@H](Cc1ccccc1)NC(=O)OCc1cncs1)C(=O)c1ccc2nc(C(C)C)oc2c1 [Compound C45, Thiazol-5-ylmethyl (2S,3R)-3-hydroxy-4-(N-isobutyl-2-isopropylbenzo[d]-oxazole-6-carboxamido)-1-phenylbutan-2-ylcarbamate] |  |  |  |  | EC50 [1, 8]: 44.7 µM; CC50 at 3 days [2, 9]: 42.7 µM; recovery at 15 min, 5 μM [3, 10]: 68%; inhibition at 45 min, 10 μM [4]: 44%; inhibition at 30 min, 10 μM [5]: 89% |
| CCN(C)c1nc2ccc(C(=O)N(CC(C)C)C[C@@H](O)[C@H](Cc3ccccc3)NC(=O)OCc3ccc4c(c3)OCO4)cc2o1 [Compound C36] | =4.57 | =4.79 | 62 | 84 |  |
| CC(C)CN(C[C@@H](O)[C@H](Cc1ccccc1)NC(=O)OCc1cncs1)C(=O)c1ccc2ncn(C(C)C)c2c1 [Compound C14] | <4.00 | <4.00 | 60 | 93 |  |
| CC(C)CN(C[C@@H](O)[C@H](Cc1ccccc1)NC(=O)OCc1cncs1)C(=O)c1ccc2nc(NCCCN(C)C)oc2c1 [Compound C23] | <4.00 | =4.22 | 59 | 28 |  |
| CCN(C)c1nc2ccc(C(=O)N(CCN(C)C)C[C@@H](O)[C@H](Cc3ccccc3)NC(=O)OCc3cncs3)cc2o1 [Compound C11] | <4.00 | <4.00 | 57 | 29 |  |
| CCN(C)c1nc2ccc(C(=O)N(CC(C)C)C[C@@H](O)[C@H](Cc3cccnc3)NC(=O)OCc3cncs3)cc2o1 [Compound C54, Thiazol-5-ylmethyl (2S,3R)-4-(2-(ethyl(methyl)amino)-N-isobutylbenzo[d]-oxazole-6-carboxamido)-3-hydroxy-1-(pyridin-3-yl)butan-2-ylcarbamate] |  |  |  |  | EC50 [1, 8]: > 100 µM; CC50 at 3 days [2, 9]: > 100 µM |
| O=C(N[C@@H](Cc1ccccc1)[C@H](O)CN(CC1CCCCC1)C(=O)c1ccc2nc(N3CCCC3)oc2c1)OCc1cncs1 [Compound C31, Thiazol-5-ylmethyl (2S,3R)-4-(N-(cyclohexylmethyl)-2-(pyrrolidin-1-yl)-benzo[d]oxazole-6-carboxamido)-3-hydroxy-1-phenylbutan-2-ylcarbamate] |  |  |  |  | EC50 [1, 13]: 27.5 µM; CC50 at 3 days [2, 9]: 21.9 µM; recovery at 15 min, 5 μM [3, 10]: 59%; inhibition at 45 min, 10 μM [4]: 78%; inhibition at 30 min, 10 μM [5]: 104% |
| CCN(C)c1nc2ccc(C(=O)N(CC(C)C)C[C@@H](O)[C@H](Cc3ccccc3)NC(=O)OCc3cncs3)cc2o1 [Compound C1, Thiazol-5-ylmethyl (2S,3R)-4-(2-(ethyl(methyl)amino)-N-isobutylbenzo[d]-oxazole-6-carboxamido)-3-hydroxy-1-phenylbutan-2-ylcarbamate] |  |  |  |  | EC50 [1, 8]: 70.8 µM; CC50 at 3 days [2]: > 81.3 µM; recovery at 15 min, 5 μM [3, 10]: 71% |
| CC(C)CN(C[C@@H](O)[C@H](Cc1ccccc1)NC(=O)OCc1cncs1)C(=O)c1ccc2nc(N3CCOCC3)oc2c1 [Compound C5] | =4.06 | <4.00 | 67 | 95 |  |
| CCN(C)c1nc2ccc(C(=O)N(C[C@@H](O)[C@H](Cc3ccccc3)NC(=O)OCc3cncs3)CC(C)(C)C)cc2o1 [Compound C43] | =4.34 | =4.32 | 67 | 97 |  |
| CCN(C)c1nc2ccc(C(=O)N(CCN3CCCC3)C[C@@H](O)[C@H](Cc3ccccc3)NC(=O)OCc3cncs3)cc2o1 [Compound C12] | <4.00 | <4.00 | 69 | 34 |  |
| CCN(C)c1nc2ccc(C(=O)N(CC(C)C)C[C@@H](O)[C@H](Cc3ccccc3)NC(=O)OCc3cccnc3)cc2o1 [Compound C9] | =4.24 | =4.32 | 65 | 91 |  |
| CC(C)CN(C[C@@H](O)[C@H](Cc1ccccc1)NC(=O)OCc1cncs1)C(=O)c1ccc2nc(N(C)CCN(C)C)oc2c1 [Compound C24] | <4.00 |  |  |  | Antiviral activity IIIB (pEC50) [1]: =4.20; Metabolic stability (HLM, % recovery after 15') [3]: 57% |
